Assay results: ChEMBL document CHEMBL5653631, “A Potent and Selective ULK1 Inhibitor Suppresses Autophagy and Sensitizes Cancer Cells to Nutrient Stress” (iScience, 2018)
Each block holds one compound with its values, some of them ahead of it.

Key:
[1] = molecular target: Serine/threonine-protein kinase PLK1 (Homo sapiens) (UniProt P53350); test: Inhibition of human recombinant PLK1 at 500 nM in presence of ATP by radiometric assay relative to control
[2] = molecular target: SRSF protein kinase 1 (Homo sapiens) (UniProt Q96SB4); test: Inhibition of human recombinant SRPK1 at 15 nM in presence of ATP by radiometric assay relative to control
[3] = molecular target: Serine/threonine-protein kinase 10 (Homo sapiens) (UniProt O94804); test: Inhibition of human recombinant LOK at 15 nM related to control ULK1
[4] = molecular target: Tyrosine-protein kinase Lyn (Homo sapiens) (UniProt P07948); test: Inhibition of human recombinant LYN at 15 nM related to control ULK1
[5] = molecular target: Cyclin-dependent kinase 9 (Homo sapiens) (UniProt P50750); test: Inhibition of human recombinant CDK9 at 40 nM in presence of ATP by radiometric assay relative to control
[6] = molecular target: T1, Myosin-IIIb (Homo sapiens) (UniProt Q8WXR4); test: Inhibition of human recombinant MYO3B at 40 nM in presence of ATP by radiometric assay relative to control
T1 sequence (whole entry): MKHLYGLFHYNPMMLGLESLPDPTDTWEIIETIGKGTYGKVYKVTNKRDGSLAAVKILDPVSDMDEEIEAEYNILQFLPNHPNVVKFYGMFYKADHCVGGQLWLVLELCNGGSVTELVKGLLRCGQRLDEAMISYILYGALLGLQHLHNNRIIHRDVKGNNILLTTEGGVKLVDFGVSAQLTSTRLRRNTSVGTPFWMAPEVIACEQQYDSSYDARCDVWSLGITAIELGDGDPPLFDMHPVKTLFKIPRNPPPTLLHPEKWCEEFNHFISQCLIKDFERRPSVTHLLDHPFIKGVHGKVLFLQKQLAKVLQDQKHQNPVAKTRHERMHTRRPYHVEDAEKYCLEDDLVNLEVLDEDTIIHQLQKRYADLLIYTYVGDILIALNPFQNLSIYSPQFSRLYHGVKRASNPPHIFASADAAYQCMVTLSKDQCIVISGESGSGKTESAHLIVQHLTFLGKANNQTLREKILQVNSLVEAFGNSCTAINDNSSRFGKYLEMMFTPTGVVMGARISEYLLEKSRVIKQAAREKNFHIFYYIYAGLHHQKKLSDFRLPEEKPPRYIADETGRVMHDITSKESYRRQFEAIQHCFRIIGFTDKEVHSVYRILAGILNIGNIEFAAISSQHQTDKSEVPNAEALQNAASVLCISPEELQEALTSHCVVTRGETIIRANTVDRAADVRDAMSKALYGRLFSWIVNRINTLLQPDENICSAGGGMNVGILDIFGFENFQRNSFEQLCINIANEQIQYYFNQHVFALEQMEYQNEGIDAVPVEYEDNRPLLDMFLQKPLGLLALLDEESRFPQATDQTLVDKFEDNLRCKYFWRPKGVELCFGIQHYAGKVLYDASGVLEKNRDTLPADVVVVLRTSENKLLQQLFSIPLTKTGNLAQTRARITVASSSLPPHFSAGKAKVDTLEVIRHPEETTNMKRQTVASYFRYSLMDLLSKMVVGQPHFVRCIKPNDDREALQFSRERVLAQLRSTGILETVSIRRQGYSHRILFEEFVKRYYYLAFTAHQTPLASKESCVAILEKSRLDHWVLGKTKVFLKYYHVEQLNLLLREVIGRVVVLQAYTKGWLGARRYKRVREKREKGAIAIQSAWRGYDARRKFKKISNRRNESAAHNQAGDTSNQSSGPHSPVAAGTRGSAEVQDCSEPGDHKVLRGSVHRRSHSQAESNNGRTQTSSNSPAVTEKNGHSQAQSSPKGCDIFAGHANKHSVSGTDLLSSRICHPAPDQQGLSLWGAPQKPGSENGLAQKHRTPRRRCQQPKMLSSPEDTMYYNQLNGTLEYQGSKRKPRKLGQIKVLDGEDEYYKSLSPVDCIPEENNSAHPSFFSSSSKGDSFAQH

[7] = molecular target: T2, cAMP-dependent protein kinase catalytic subunit PRKX (Homo sapiens) (UniProt P51817); test: Inhibition of human recombinant PRKX at 40 nM in presence of ATP by radiometric assay relative to control
T2 sequence (whole entry): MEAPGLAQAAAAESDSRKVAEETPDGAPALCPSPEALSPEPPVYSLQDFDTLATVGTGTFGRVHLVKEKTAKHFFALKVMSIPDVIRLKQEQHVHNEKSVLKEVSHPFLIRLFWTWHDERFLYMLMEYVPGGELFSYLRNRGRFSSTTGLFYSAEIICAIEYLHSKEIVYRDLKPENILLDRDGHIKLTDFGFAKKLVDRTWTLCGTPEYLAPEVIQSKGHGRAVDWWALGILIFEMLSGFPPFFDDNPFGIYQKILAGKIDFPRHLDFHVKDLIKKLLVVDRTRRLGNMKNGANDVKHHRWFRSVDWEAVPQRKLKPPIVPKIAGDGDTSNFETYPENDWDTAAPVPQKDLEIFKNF

[8] = molecular target: TGF-beta receptor type-2 (Homo sapiens) (UniProt P37173); test: Inhibition of human recombinant TGFbR2 at 40 nM related to control ULK1
TGF-beta receptor type-2 (Homo sapiens), sequence (P37173 whole entry): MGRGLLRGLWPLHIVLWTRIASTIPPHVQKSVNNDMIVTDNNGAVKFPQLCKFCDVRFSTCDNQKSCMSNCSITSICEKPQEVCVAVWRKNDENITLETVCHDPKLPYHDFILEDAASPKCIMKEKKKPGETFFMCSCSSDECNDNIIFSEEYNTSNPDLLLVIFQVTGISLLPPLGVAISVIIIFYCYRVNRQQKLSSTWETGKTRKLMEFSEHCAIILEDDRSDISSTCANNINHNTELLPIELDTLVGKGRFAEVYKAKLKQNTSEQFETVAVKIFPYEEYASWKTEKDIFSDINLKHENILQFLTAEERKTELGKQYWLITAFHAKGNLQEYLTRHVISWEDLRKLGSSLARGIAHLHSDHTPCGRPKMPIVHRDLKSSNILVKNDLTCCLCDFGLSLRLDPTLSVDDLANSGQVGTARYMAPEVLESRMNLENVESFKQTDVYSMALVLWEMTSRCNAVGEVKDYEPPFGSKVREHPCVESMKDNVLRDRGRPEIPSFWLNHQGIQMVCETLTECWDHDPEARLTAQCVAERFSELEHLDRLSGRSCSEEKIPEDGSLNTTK

Serine/threonine-protein kinase PLK1 (Homo sapiens), sequence (P53350 whole entry): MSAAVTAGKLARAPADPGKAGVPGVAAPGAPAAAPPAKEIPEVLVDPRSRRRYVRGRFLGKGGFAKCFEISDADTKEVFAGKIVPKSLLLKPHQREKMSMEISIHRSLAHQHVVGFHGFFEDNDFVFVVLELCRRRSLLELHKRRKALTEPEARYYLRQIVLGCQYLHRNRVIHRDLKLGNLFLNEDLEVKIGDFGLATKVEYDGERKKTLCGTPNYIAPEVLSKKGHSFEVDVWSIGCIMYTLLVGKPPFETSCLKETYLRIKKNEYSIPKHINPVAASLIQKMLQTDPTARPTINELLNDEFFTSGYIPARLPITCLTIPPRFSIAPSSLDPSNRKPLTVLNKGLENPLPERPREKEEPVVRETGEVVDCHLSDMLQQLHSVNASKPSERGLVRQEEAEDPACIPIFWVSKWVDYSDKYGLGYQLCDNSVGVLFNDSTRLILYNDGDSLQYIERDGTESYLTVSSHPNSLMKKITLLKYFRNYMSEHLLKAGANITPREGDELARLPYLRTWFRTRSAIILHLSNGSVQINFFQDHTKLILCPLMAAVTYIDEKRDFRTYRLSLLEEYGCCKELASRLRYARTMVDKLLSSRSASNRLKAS
SRSF protein kinase 1 (Homo sapiens), sequence (Q96SB4 whole entry): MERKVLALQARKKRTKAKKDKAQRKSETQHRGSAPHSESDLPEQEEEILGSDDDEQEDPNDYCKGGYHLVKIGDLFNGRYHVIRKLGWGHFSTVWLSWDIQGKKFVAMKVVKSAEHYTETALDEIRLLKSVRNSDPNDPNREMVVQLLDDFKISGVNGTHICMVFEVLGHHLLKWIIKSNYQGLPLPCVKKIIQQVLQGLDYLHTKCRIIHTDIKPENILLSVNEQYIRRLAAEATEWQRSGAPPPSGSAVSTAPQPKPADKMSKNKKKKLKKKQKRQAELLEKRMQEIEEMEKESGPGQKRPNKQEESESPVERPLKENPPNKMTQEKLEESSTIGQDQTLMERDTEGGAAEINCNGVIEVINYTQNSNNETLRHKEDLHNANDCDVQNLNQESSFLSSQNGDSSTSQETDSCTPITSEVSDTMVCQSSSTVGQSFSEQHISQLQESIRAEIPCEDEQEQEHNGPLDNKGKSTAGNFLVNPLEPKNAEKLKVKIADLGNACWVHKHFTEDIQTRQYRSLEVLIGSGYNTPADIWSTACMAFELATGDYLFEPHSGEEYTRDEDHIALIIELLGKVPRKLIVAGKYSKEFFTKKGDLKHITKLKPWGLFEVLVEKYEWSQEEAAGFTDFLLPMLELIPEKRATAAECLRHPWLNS
Serine/threonine-protein kinase 10 (Homo sapiens), sequence (O94804 whole entry, looked up): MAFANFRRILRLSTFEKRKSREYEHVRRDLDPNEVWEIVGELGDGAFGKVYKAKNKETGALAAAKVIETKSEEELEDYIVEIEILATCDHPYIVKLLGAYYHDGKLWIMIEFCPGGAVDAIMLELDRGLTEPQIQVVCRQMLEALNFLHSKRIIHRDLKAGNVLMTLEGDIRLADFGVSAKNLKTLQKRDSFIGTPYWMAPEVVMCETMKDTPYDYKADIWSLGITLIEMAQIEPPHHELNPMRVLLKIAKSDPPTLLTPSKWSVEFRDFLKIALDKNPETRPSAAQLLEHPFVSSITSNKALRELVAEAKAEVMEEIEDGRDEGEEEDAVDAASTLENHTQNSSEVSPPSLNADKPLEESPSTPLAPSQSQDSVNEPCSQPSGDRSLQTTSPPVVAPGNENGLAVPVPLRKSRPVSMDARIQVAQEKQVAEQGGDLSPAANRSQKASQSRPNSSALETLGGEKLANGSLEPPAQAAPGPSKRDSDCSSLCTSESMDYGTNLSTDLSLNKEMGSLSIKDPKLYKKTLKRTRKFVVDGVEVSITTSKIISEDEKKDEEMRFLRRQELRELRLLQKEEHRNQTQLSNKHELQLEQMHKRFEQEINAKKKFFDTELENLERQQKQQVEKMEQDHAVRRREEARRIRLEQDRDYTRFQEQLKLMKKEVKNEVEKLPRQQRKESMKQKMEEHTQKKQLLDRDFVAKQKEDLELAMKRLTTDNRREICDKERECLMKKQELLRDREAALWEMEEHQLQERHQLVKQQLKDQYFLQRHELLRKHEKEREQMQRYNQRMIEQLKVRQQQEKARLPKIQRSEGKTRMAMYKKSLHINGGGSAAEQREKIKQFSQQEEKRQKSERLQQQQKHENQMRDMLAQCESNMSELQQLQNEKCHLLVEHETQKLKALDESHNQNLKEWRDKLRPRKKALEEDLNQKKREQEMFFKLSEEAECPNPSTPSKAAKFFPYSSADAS
Cyclin-dependent kinase 9 (Homo sapiens), sequence (P50750 whole entry): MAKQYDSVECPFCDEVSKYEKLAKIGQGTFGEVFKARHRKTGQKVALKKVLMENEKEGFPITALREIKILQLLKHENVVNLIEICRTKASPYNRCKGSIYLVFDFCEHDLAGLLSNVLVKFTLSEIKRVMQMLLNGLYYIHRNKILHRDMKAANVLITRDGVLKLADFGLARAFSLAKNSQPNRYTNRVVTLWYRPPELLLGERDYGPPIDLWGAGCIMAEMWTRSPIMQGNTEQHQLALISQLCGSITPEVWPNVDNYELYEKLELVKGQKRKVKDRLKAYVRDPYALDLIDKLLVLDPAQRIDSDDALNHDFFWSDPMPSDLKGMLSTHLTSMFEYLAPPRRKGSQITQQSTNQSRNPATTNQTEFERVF
Tyrosine-protein kinase Lyn (Homo sapiens), sequence (P07948 2-512 limits assumed): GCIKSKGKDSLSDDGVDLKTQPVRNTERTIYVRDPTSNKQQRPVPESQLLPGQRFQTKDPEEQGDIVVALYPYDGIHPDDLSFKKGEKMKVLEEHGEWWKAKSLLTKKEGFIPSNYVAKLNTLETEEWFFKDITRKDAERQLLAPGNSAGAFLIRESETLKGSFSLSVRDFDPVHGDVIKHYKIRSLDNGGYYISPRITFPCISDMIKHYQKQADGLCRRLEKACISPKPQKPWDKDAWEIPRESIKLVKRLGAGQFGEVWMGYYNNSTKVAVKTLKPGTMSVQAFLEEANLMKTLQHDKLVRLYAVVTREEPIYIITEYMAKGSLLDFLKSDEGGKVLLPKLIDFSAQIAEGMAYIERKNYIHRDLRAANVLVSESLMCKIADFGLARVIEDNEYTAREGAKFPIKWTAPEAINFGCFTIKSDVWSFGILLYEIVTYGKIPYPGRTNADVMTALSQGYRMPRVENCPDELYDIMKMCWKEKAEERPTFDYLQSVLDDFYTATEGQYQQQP

inhibition [1]: 0%
SMILES: CNC(=O)c1ccccc1Oc1nc(Nc2cc(OC)c(OC)c(OC)c2)ncc1Br

inhibition [2]: 0% | fold change (FC) [3]: 0 | fold change (FC) [4]: 0.22
SMILES: CC(C)[C@H](NC(=O)c1cc(-c2cnn3cc(-c4ccc(OCCN5CCCCC5)cc4)cnc23)cs1)C(F)(F)F

inhibition [5]: 0% | inhibition [6]: 0% | inhibition [7]: 20% | fold change (FC) [8]: 0.64
SMILES: O=C(N[C@@H](C1CC1)C(F)(F)F)c1cc(-c2cnn3cc(-c4ccc(F)cc4)cnc23)cs1
